The source of these data is patent US20160264568A1, “SUBSTITUTED TRIAZOLOPYRIDINES HAVING ACTIVITY AS MPS-1 INHIBITORS” (BAYER PHARMA AKTIENGESELLSCHAFT, priority 2013, published 2016).

In data set [1] the test system is HeLa human cervical tumor cells. In words: HeLa cell proliferation assay (crystal violet). The format is cell-based. As to conditions: 96 h, 4 days incubation, crystal violet staining, read-out: Inhibition of cell proliferation, cell Line: HeLa IC50. As for the experimental part:
Cultivated tumor cells (MCF7, hormone dependent human mammary carcinoma cells, ATCC HTB22; NCI-H460, human non-small cell lung carcinoma cells, ATCC HTB-177; DU 145, hormone-independent human prostate carcinoma cells, ATCC HTB-81; HeLa-MaTu, human cervical carcinoma cells, EPO-GmbH, Berlin; HeLa-MaTu-ADR, multidrug-resistant human cervical carcinoma cells, EPO-GmbH, Berlin; HeLa human cervical tumor cells, ATCC CCL-2; B16F10 mouse melanoma cells, ATCC CRL-6475) were plated at a density of 5000 cells/well (MCF7, DU145, HeLa-MaTu-ADR), 3000 cells/well (NCI-H460, HeLa-MaTu, HeLa), or 1000 cells/well (B16F10) in a 96-well multititer plate in 200 μl of their respective growth medium supplemented 10% fetal calf serum. […] Cell proliferation was determined by staining the cells with crystal violet: the cells were fixed by adding 20 μl/measuring point of an 11% glutaric aldehyde solution for 15 minutes at room temperature. […] The extinction of the stained cells was determined by photometry at a wavelength of 595 nm. The change of cell number, in percent, was calculated by normalization of the measured values to the extinction values of the zero-point plate (=0%) and the extinction of the untreated (0 μm) cells (=100%). The […] values were determined by means of a 4 parameter fit using the company's own software. […]

For a further data set, the target named is T1, human kinase Mps-1 (Homo sapiens, UniProt P33981).
T1 construct: N-terminally GST-tagged human full length recombinant Mps-1 kinase; GST (N); purchased Invitrogen, Karslruhe, Germany PV4071
T1 sequence (P33981 1-857): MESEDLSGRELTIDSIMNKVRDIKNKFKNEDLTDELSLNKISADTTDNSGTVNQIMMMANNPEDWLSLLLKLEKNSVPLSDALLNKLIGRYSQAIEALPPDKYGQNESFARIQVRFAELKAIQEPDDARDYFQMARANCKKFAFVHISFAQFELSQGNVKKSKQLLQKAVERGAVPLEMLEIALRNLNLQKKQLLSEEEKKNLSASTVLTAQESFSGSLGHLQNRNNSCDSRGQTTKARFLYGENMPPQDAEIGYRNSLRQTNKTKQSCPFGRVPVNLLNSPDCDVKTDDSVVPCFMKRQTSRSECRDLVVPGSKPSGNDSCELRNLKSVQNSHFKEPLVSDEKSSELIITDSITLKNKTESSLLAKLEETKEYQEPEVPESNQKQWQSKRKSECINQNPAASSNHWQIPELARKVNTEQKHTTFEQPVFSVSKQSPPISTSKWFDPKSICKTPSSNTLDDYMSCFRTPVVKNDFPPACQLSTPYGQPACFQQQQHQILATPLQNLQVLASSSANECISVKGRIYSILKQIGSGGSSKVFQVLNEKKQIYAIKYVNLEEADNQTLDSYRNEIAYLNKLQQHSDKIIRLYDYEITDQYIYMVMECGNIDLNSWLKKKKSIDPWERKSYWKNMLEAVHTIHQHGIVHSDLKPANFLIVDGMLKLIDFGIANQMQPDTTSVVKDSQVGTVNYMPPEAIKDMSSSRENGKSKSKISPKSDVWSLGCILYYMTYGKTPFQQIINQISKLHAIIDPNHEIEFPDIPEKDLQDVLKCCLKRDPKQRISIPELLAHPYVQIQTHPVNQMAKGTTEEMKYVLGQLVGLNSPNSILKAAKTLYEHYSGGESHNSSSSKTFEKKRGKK
The data set is described as follows: Mps-1 kinase assay (TR-FRET). The format is biochemical. On the procedure:
The human kinase Mps-1 phosphorylates a biotinylated substrate peptide. Detection of the phosphorylated product is achieved by time-resolved fluorescence resonance energy transfer (TR-FRET) from Europium-labelled anti-phospho-Serine/Threonine antibody as donor to streptavidin labelled with cross-linked allophycocyanin (SA-XLent) as acceptor. Compounds are tested for their inhibition of the kinase activity.
N-terminally GST-tagged human full length recombinant Mps-1 kinase (purchased from Invitrogen, Karslruhe, Germany, cat. no PV4071) was used. […]
The resulting mixture was incubated 1 h at 22° C. to allow the binding of the phosphorylated peptide to the anti-phospho(Ser/Thr)-Europium-antibody. Subsequently the amount of phosphorylated substrate was evaluated by measurement of the resonance energy transfer from the Europium-labelled anti-phospho(Ser/Thr) antibody to the Streptavidin-XLent. Therefore, the fluorescence emissions at 620 nm and 665 nm after excitation at 350 nm was measured in a Viewlux TR-FRET reader (PerkinElmer LAS, Rodgau-Jugesheinn, Germany). The “blank-corrected normalized ratio” (a Viewlux specific readout, similar to the traditional ratio of the emissions at 665 nm and at 622 nm, in which blank and Eu-donor crosstalk are subtracted from the 665 nm signal before the ratio is calculated) was taken as the measure for the amount of phosphorylated substrate. […]

Data set [2] can be described thus: Metabolic stability in vitro, rat liver microsomes. Type of data set: in vitro ADME. As to conditions: maximal oral bioavailability calculated from microsomal half-life, 1 μM compound. On the procedure: (§1) The metabolic stability of test compounds in vitro was determined by incubating them at 1 μM with a suspension of liver microsomes in 100 mM phosphate buffer, pH7.4 (NaH2PO4xH2O+Na2HPO4x2H2O) at a protein concentration of 0.5 mg/mL and at 37° C. The reaction was activated by adding a co-factor mix containing 1.2 mg NADP, 3 IU glucose-6-phosphate dehydrogenase, 14.6 mg glucose-6-phosphate and 4.9 mg MgCl2 in phosphate buffer, pH 7.4. Organic solvent in the incubations was limited to <0.2% dimethylsulfoxide (DMSO) and <1% methanol. During incubation, the microsomal suspensions were continuously shaken and aliquots were taken at 2, 8, 16, 30, 45 and 60 min, to which equal volumes of cold methanol were immediately added. Samples were frozen at −20° C. over night, subsequently centrifuged for 15 minutes at 3000 rpm and the supernatant was analyzed with an Agilent 1200 HPLC-system with LCMS/MS detection.
(§2) The half-life of a test compound was determined from the concentration-time plot. From the half-life the intrinsic clearances were calculated. Together with the additional parameters liver blood flow, specific liver weight and microsomal protein content the hepatic in vivo blood clearance (CL) and the maximal oral bioavailability (Fmax) were calculated for the different species. […]

Data set [3] in a line: Metabolic stability in vitro, human liver microsomes. As to conditions: maximal oral bioavailability calculated from microsomal half-life, 1 μM compound. Type of data set: in vitro ADME. As for the experimental part:
as §1, §2

Data set [4] in a line: Metabolic stability in vitro, dog liver microsomes. Type of data set: in vitro ADME. As to conditions: maximal oral bioavailability calculated from microsomal half-life, 1 μM compound. As for the experimental part:
as §1, §2

Like-named read-outs stand apart in the source and are kept apart here.

For the compound `COc1cc2c(cc1Nc1nc3ccc(-c4ccc(NC(=O)[C@H](C)c5ccc(F)cc5)cc4)cn3n1)CCS2(=O)=O` [Example01.01, (2R)-2-(4-fluorophenyl)-N-(4-{2-[(6-methoxy-1,1-dioxido-2,3-dihydro-1-benzothiophen-5-yl)amino][1,2,4]triazolo[1,5-a]pyridin-6-yl}phenyl)propanamide], the IC50 in data set [1] was below 400 nM; on human kinase Mps-1 (10 μM ATP, read-out: Mps-1 Inhibition, IC50 (Assay with 10 μM ATP)), below 1 nM; at human kinase Mps-1 (2 mM ATP, read-out: Mps-1 Inhibition, IC50 (Assay with 2 mM ATP)), 1.6 nM. Moreover, the “Rat liver microsomes; Fmax [%]” value in data set [2] is 96%. In addition, the “Human liver microsomes; Fmax [%]” value in data set [3] is 83%. For the same compound, the “Dog liver microsomes; Fmax [%]” value in data set [4] was 65%.
